Experimental findings from US12246071B2, “Brain-penetrating ligand and drug carrier” (priority 2018, dated 2025) are described below.

Data set [1] relates to SH-SY5Y cells. Put plainly: Cholesterol leakage from U18666A-treated cells. Format: cell-based, human. The settings on record: 1.0, 10.0 and 20.0 mM, 2 hours, 37° C., after U18666A 7.5 μM. How it is done: SH-SY5Y cells (1.0×10^5 cells), which are human neuroblasts, were seeded in a 24-well plate, incubated at 37° C. for 24 hours, then, washed with PBS, and a medium supplemented with U18666A (7.5 μM) was added, and it was incubated for an additional 24 hours. Then, washed with PBS, and 150 μL of a medium (HBSS, FBS (−)) containing HP-3-CyD (DS4.4) (1.0, 10.0 and 20.0 mM) or Lac-HP-β-CyD (DSL3.0) (1.0, 10.0 and 20.0 mM) was added. After incubating at 37° C. for 2 hours, the supernatant was collected and centrifuged (10,000). The cholesterol concentration and phospholipid concentration in the obtained supernatant were measured with cholesterol E-Test wako and phospholipid C-Test wako.

For data set [2], the system named is hCMEC/D3 cells. Put plainly: Uptake of HiLyte-labeled Lac-HP-β-CyD into brain capillary endothelial cells (confocal microscope). Format: cell-based, human. The settings on record: 1 mM, 1 hour, 37° C. The protocol:
Lac-HP-β-CyD (DSL3.0) and the control HP-β-CyD […] were labeled with HiLyte fluorescent dye according to the manufacturer's manual. The following experiments were carried out using these.
Using hCMEC/D3 cells, which are human brain capillary endothelial cells, the uptake of Lac-HP-β-CyD into cells was confirmed. hCMEC/D3 cells were seeded at 1.0×10^4 cells/glass dish and incubated at 37° C. for 24 hours. Then, it was washed with PBS, and 150 μL of a medium containing HiLyte-HP-β-CyD (DS4.4, 1 mM) or HiLyte-Lac-HP-β-CyD (DSL3.0, 1 mM) was added, and incubated at 37° C. for 1 hour. After washing with PBS, it was fixed with 4% paraformaldehyde.

Data set [3] deals with SH-SY5Y cells. Put plainly: Uptake into SH-SY5Y cells after permeation of the hCMEC/D3 monolayer. The settings on record: HiLyte-labeled, 1 mM on upper side, 60 minutes. Format: cell-based, human. The protocol: hCMEC/D3 cells were seeded in the upper component of a transwell at 2.0×10^5 cells/well, incubated at 37° C. for 5 days, then, the transepithelial electrical resistance (TEER) was measured. SH-SY5Y cells were seeded at 1.0×10^5 cells/well in a 6-well plate, which is a lower component, and incubated at 37° C. for 1 day. […] Over time (upper side 0, 60 minutes; lower side 0, 5, 15, 30, and 60 minutes), the medium was sampled, the fluorescence intensity was measured using I-control (M1000) (TECAN), and the permeation amount was measured. Similar to Example 4, the permeation coefficient Papp (cm/sec) was calculated as follows.

Data set [4] deals with SH-SY5Y cells. Put plainly: Intracellular accumulation of amyloid β. In kind it is cell-based, human. The conditions noted are these: 1 mM, 24 hours, after U18666A 7.5 μM and HiLyte488-Aβ 250 nM. How it is done: Using SH-SY5Y cells, the amyloid β accumulation in the cells was measured. SH-SY5Y cells were seeded at 1.0×10^4 cells/glass dish and incubated at 37° C. for 24 hours. Then, washed with PBS, 150 μL of a medium containing U18666A (7.5 μM) and HiLyte488-Aβ (purchased from AnaSpec) (250 nM) was added and incubated at 37° C. for 24 hours. After washing with PBS, 200 μL of a medium containing HP-β-CyD (DS4.4.1 mM) or Lac-HP-β-CyD (DSL3.0, 1 mM) was added, and the mixture was incubated at 37° C. for 24 hours. After washing with PBS, 200 μL of a medium supplemented with Lysostacker (registered trademark) (final concentration: 100 nM) was added. After incubating for 30 minutes, it was fixed with 4% paraformaldehyde and the FIlipin solution was added.

A short description of data set [5]: Organ distribution of fluorescently labeled Lac-HP-β-CyD after intravenous injection (IVIS). Format: in vivo, BALB/c mouse. The settings on record: HiLyte-labeled, 10 mg/kg intravenous, BALB/c mice, 10 minutes. The protocol:
BALB/c mice (8 weeks old, male, 20 g) were intravenously injected with HiLyte-HP-β-CyD (DS4.4) or HiLyte-Lac-HP-β-CyD (DSL3.0) at a dose of 10 mg/kg. After 10 minutes, the mice were euthanized, perfused with PBS and each organ was collected. Each organ was observed by IVIS.

For “lactose-modified hydroxypropyl-β-cyclodextrin [Lac-HP-β-CyD]”, in data set [1], the “cholesterol leakage into supernatant” value was “less cholesterol leakage than HP-β-CyD”. In addition, the uptake into cells result in data set [2] is recorded as “significantly taken up into the cells as compared with HP-β-CyD”. Also, the “uptake into SH-SY5Y cells after BBB permeation” value in data set [3] is given as “significantly taken up into SH-SY5Y cells after BBB permeation as compared with HP-β-CyD”. Besides, the “Aβ clearance / intracellular amyloid β accumulation” value in data set [4] is “normalized the Aβ clearance by reducing the amount of cholesterol in cells”. Besides, in data set [5], the “penetration to the brain (fluorescence intensity of organ)” value is listed as “significantly penetrated to the brain as compared with HP-β-CyD”.
